Earlier results as cited in patent US20250122197A1, “PROCESS FOR […] ISOLATING ATROPISOMERS OF 7-CHLORO-6-FLUORO-1-(2-ISOPROPYL-4-METHYLPYRIDIN-3-YL)PYRIDO[2,3-D]PYRIMIDINE-2,4(1H,3H)-DIONE” (AMGEN INC., priority 2020, published 2025).

Assays:
KRAS p.G12C tumors = conditions: mice bearing KRAS p.G12C tumors, Canon et al. Nature 2019
[1] = system: phosphorylation of extracellular signal-regulated kinase (ERK); conditions: preclinical studies, Canon et al. Nature 2019

C=CC(=O)N1CCN(c2nc(=O)n(-c3c(C)ccnc3C(C)C)c3nc(-c4c(O)cccc4F)c(F)cc23)[C@@H](C)C1 [AMG 510]
Tumor regression (KRAS p.G12C tumors): durable complete tumor regression
Inhibition of ERK phosphorylation [1]: inhibited nearly all detectable phosphorylation
